Test results published in US5565478A (The United States of America as represented by the …, priority 1994, dated 1996).
Like-named read-outs stand apart in the source and are kept apart here.

Legend:
[1] = Toxicity of compound 1 in patients
[2] = tested on: A2780-CP70 cells; assay: Monolayer assay, compound 1 followed by paclitaxel; assay type: cell-based, human; conditions: compound 1 (5 μM) 24 hr, then paclitaxel (0 to 0.007 μM) 24 hr
Description: (§1) A2780-CP70 are a selected subline of A2780 which are stably resistant to cisplatin in the absence of continuous exposure. These cells were obtained from Robert Ozols, MD at the Fox Chase Cancer Center, Philadelphia, Pa., USA. These cells were cultured as described above.
(§2) For each of the cell types, 50,000 cells were plated per well in 24-well tissue culture plates. One mL of medium was added to each well and the cells were incubated overnight at 37° C. The media was carefully aspirated away and media (1 mL) containing compound 1 (5 μM) or DMSO vehicle control was added to each well. After incubating the cells for 24 hr at 37° C., the media from each well was carefully aspirated away and each well was washed twice with serum-free media. […] After the incubation, the media was aspirated away and each well was washed twice with serum-free media. Serum-containing media was then added to each well and all plates were incubated for 4 days at 37° C. At the end of 4 days, the media was aspirated off and wells were fixed and stained with crystal violet in methanol. The wells were air dried and eluted with sodium citrate and ethanol. The optical density (OD) was determined for each of the well eluates at 540 nm. The percent relative growth was calculated by dividing the mean OD of identically treated wells by the OD of the control and multiplying by 100.

[3] = tested on: A2780-CP70 cells; assay: Colony assay, paclitaxel followed by compound 1; assay type: cell-based, human; conditions: paclitaxel (0.003 μM) 24 hr, then compound 1 (0 to 10 μM); cisplatin-resistant A2780-CP70
Description: as §1
The cells were again washed with PBS and treated with compound 1 (0 to 10 μM) for 24 hr, washed again with PBS and incubated for 5 days in drug-free media. The resulting cells were fixed, stained and the colonies were counted. Data are presented in FIGS. 4 and 5 as a percentage of control growth (DMSO treatment only).

[4] = tested on: A2780 cells; assay: Colony assay, compound 1 followed by paclitaxel; assay type: cell-based, human; conditions: compound 1 (0, 1 and 5 μM) 24 hr, then compound 3 (paclitaxel, 0 to 0.01 μM) 24 hr
Description: (§3) A2780 human ovarian cancer cells are available from the ATCC. The cells were cultured in RPMI 1640 with 10% FCS under standard conditions. See the ATCC catalog. The culture media contained penicillin and streptomycin and in some instances, insulin.
(§4) Cells were incubated overnight in serum-containing medium, then washed once and treated with compound 1 (0, 1 and 5 μM). […] The resulting cells were washed once with PBS, treated with serum-containing media and incubated for 5 days. The cells were then fixed and stained with methylene blue in 40% methanol and the colonies were counted. FIGS. 2 and 3 show the results for the A2780 and A2780-CP70 cells, respectively. Data are presented as a percent of control (DMSO vehicle) growth.

[5] = both in vitro and in vivo; cited from earlier work
[6] = tested on: MDA 231 human breast cancer cells; assay: Monolayer assay, compound 1 followed by paclitaxel; assay type: cell-based; conditions: compound 1 (5 μM) 24 hr, then paclitaxel (0 to 0.007 μM) 24 hr; MDA 231 monolayer
Description: MDA-231 hormone-resistant human breast cancer cells from ATCC were cultured in DMEM with 10% FCS and penicillin/streptomycin, under standard conditions.
as §2

[7] = tested on: nonvoltage-gated and voltage-gated calcium channels; conditions: cited from earlier work
[8] = clinical; conditions: human, plasma, 100 mg/m^2
[9] = tested on: A2780 cells; assay: Colony assay, compound 1 in combination with carboplatin; assay type: cell-based, human
Description: as §3
(§5) Cells were incubated overnight in serum-containing medium, then washed once and treated with compound 1 (5 μM). After 24 hr, the cells were washed once with PBS and then treated with carboplatin (1 to ~200 μM) for an additional 24 hr. The resulting cells were washed once with PBS, treated with serum-containing media and incubated for 5 days. The cells were then fixed and stained with methylene blue in 40% methanol and the colonies were counted. […] Data are presented as a percent of control (DMSO vehicle) growth.

[10] = tested on: A2780 human ovarian cancer cells; assay: Colony growth inhibition, 24 hr exposure; assay type: cell-based; conditions: colonies counted after 5 days
Description: as §3
(§6) Cells (500) were plated in 6-well plates and allowed to grow overnight. […] Controls were conducted by adding DMSO vehicle in complete media. […] After 5 days of incubation, the cells were washed once with PBS and then stained with methylene blue in 40% methanol for 20 min. The wells were rinsed gently with water and allowed to air dry. Colonies were counted by hand.

[11] = tested on: A2780 cells; assay: Monolayer assay, compound 1 followed by paclitaxel; assay type: cell-based, human; conditions: compound 1 (5 μM) 24 hr, then paclitaxel (0 to 0.007 μM) 24 hr
Description: as §3, §2

[12] = 100 mg/m^2/day
[13] = tested on: production of arachidonic acid; conditions: cited from earlier work
[14] = Stability of compound 1 in PEG-400 solution; assay type: physicochemical; conditions: temperatures of up to 50° C.
Description: Compound 1 (NSC 609974) is available from the National Cancer Institute as a white powder. Preferably, it is dispensed as a 100 mg/mL solution in PEG-400. Compound 1 in PEG-400 solution is stable for at least 3 months at temperatures of up to 50° C. It is administered as a measured liquid dose daily for 8 days or more. It is recommended that patients take nothing by mouth for 3 hours prior to and 1 hour after taking the compound 1.

[15] = at least; fixed dose 100 mg/m^2/d, by the 8th day of administration; read-out: plasma levels in humans; cited from earlier work
[16] = tested on: phosphorylation events which are associated with receptor activation; conditions: cited from earlier work
[17] = humans, 100 mg/m^2/d; cited from earlier work
[18] = tested on: A2780-CP70 cells; assay: Colony assay, compound 1 followed by paclitaxel; assay type: cell-based, human; conditions: compound 1 (0, 1 and 5 μM) 24 hr, then compound 3 (paclitaxel, 0 to 0.01 μM) 24 hr
Description: as §1, §4

[19] = tested on: A2780-CP70 cells (cisplatin-resistant); assay: Colony growth inhibition, 24 hr exposure; assay type: cell-based; conditions: Homo sapiens, colonies counted after 5 days
Description: as §1, §6

[20] = tested on: A2780-CP70 cells; assay: Colony assay, compound 1 in combination with carboplatin; assay type: cell-based, human
Description: as §1, §5

[21] = tested on: voltage-gated L-type calcium channels in vascular smooth muscle cells; conditions: vascular smooth muscle cells under patch clamp; cited from earlier work
[22] = tested on: receptor-mediated calcium entry (RMCE) in platelets, endothelial cells and neutrophils; conditions: cited from earlier work
[23] = tested on: human tumors; conditions: clinical trials; cited from earlier work
[24] = cited from earlier work
[25] = tested on: microtubule; conditions: cited from earlier work
[26] = tested on: calcium levels in cells; conditions: cited from earlier work
[27] = in vitro; cited from earlier work
[28] = tested on: paclitaxel-induced neutropenia; conditions: cited from earlier work
[29] = carboplatin first, then compound 1
[30] = compound 1 (5 μM) 24 hr, then carboplatin (1 to ~200 μM) 24 hr

NC(=O)c1nnn(Cc2cc(Cl)c(C(=O)c3ccc(Cl)cc3)c(Cl)c2)c1N [Compound 1, 5-amino-1-(4-(4-chlorobenzoyl)-3,5-dichlorobenzyl)-1,2,3-triazole-4-carboxamide]
common low-grade toxicities ([1]; human, in vivo): nausea and emesis | uncommon toxicities ([1]; human, in vivo): mood changes (low-grade), peripheral neuropathy (mild to moderate) and neutropenia | toxicity at dosing level ([1]; patients, 100 mg/m^2/day): no significant toxicity | combination effect on percent relative growth [2]: supra-additive effect | combination effect on growth [3]: additive effect | combination effect on growth [4]: supra-additive effect | single agent activity [5]: antiproliferative, anti-invasive, and anti-metastatic properties | combination effect on percent relative growth [6]: supra-additive effect | inhibition of calcium uptake [7]: inhibitor of calcium uptake | concentration at 192 h [8]: 1 to 5 µM | combination effect on growth, reversed sequence [9, 29]: sub-additive effect | combination effect on growth [9, 30]: sub-additive effect | IC50 [10]: 3 µM | combination effect on percent relative growth [11]: supra-additive effect | usual plasma levels, plateau [12]: 3 to 4 µg/mL | concentration ([12]; read-out: usual plasma levels, plateau (molar)): 5 to 10 µM | effect on production of arachidonic acid [13]: alter production of arachidonic acid | stability in PEG-400 solution [14]: at least 3 months | concentration [15]: 1 to 5 µM | effect on phosphorylation events [16]: inhibits phosphorylation events | toxicity at fixed dose [17]: no significant toxicity | combination effect on growth [18]: supra-additive effect | IC50 [19]: 9.5 µM | combination effect on growth, reversed sequence [20, 29]: sub-additive effect | combination effect on growth [20, 30]: sub-additive effect

COc1ccc(CCCOC(Cn2ccnc2)c2ccc(OC)cc2)cc1 (stereo not drawn) [Compound 2]
block of voltage-gated L-type calcium channels [21]: blocks voltage-gated L-type calcium channels | inhibition of RMCE [22]: inhibits RMCE

CC(=O)O[C@H]1C(=O)[C@@]2(C)[C@H]([C@H](OC(=O)c3ccccc3)[C@]3(O)C[C@H](OC(=O)[C@H](O)[C@@H](NC(=O)c4ccccc4)c4ccccc4)C(C)=C1C3(C)C)[C@]1(OC(C)=O)CO[C@@H]1C[C@@H]2O [Compound 3, Paclitaxel]
efficacy in human tumors [23]: demonstrated efficacy in several human tumors | dose at which dose limiting toxicity of peripheral neuropathy has been seen ([24]; paclitaxel infusion over 3-24 hours every 21 days): above 300 mg/m^2 | toxicities of paclitaxel ([24]; patients): nausea, emesis, diarrhea, neutropenia, thrombocytopenia, anemia, hair loss, myalgia, cardiac conduction abnormalities, hypersensitivity reactions, peripheral and autonomic neuropathy, mucositis | effect on microtubule polymerization [25]: promotion of microtubule polymerization

Clc1ccc(COC(Cn2ccnc2)c2ccc(Cl)cc2Cl)cc1 (stereo not drawn) [econazole]
effect on calcium levels in cells [26]: effect calcium levels in cells

OC(Cn1cncn1)(Cn1cncn1)c1ccc(F)cc1F [fluconazole]
effect on calcium levels in cells [26]: effect calcium levels in cells

CCC(C)n1ncn(-c2ccc(N3CCN(c4ccc(OCC5COC(Cn6cncn6)(c6ccc(Cl)cc6Cl)O5)cc4)CC3)cc2)c1=O (stereo not drawn) [itraconazole]
effect on calcium levels in cells [26]: effect calcium levels in cells

CC(=O)N1CCN(c2ccc(OCC3COC(Cn4ccnc4)(c4ccc(Cl)cc4Cl)O3)cc2)CC1 (stereo not drawn) [ketoconazole]
effect on activity of paclitaxel [27]: augment the activity of paclitaxel | effect on calcium levels in cells [26]: effect calcium levels in cells

Clc1ccc(COC(Cn2ccnc2)c2ccc(Cl)cc2Cl)c(Cl)c1 (stereo not drawn) [miconazole]
effect on calcium levels in cells [26]: effect calcium levels in cells

B1: G-CSF: cytokine which blunts paclitaxel-induced neutropenia; recombinant cytokine from Amgen (protein, UniProt P09919 31-207, looked up)
Granulocyte …: TPLGPASSLPQSFLLKCLEQVRKIQGDGAALQEKLVSECATYKLCHPEELVLLGHSLGIPWAPLSSCPSQALQLAGCLSQLHSGLFLYQGLLQALEGISPELGPTLDTLQLDVADFATTIWQQMEELGMAPALQPTQGAMPAFASAFQRRAGGVLVASHLQSFLEVSYRVLRHLAQP
modifications: filgrastim
notes: recombinant cytokine from Amgen
maintenance of paclitaxel dose ([28]; G-CSF escalation up to 30 μg/kg/d, paclitaxel alone or with compound 1): associated with maintenance of the dose of paclitaxel | effect on paclitaxel-induced neutropenia ([28]; in vivo): blunts paclitaxel-induced neutropenia
